{"source": "patent US20240002325A1", "about": "“OXYLIPINS, PROCESSES FOR MAKING THE SAME, AND METHODS FOR USING THE SAME” (THE TRUSTEES OF INDIANA UNIVERSITY, priority 2020, published 2024)", "origin": "cited, not measured here", "key": {"bacterial biofilms": {"test_system": "bacterial biofilms", "details": "in vitro; has been reported"}, "[1]": {"test_system": "flagellum-driven swimming and swarming motilities", "details": "has been reported"}}, "data": [{"smiles": "CCCCCCCCC(O)/C=C/CCCCCCC(=O)O", "note": "(centres unmarked) [Compound 10-HOME, (E)-10-hydroxyoctadec-8-enoic acid]", "values": [{"measurement": "effect on formation of bacterial biofilms", "setting": "bacterial biofilms", "result": "stimulate the formation of bacterial biofilms in vitro"}, {"measurement": "effect on flagellum-driven swimming and swarming motilities", "setting": "[1]", "result": "inhibit flagellum-driven swimming and swarming motilities"}]}]}
